Measurements as given in patent US20240391965A1, “STAPLED ANTIMICROBIAL PEPTIDES (STAMPS) AND USES THEREOF” (Lytica Therapeutics, Inc., priority 2021, published 2024).
Converted amounts (≈) assume the structure as drawn. Starred links: 1 amine or outer side, 2 acyl side, 3 side chain; linkers in the order of their positions; H or OH if unused. Positions of bridges follow the written chain, without caps; N, C: chain ends. Residues, ends and D or L forms follow the SMILES beside them. Biphenyl(4,4'-CH2)2 = c1cc(-c2ccc(C[*:2])cc2)ccc1C[*:1]; mXylylene = c1cc(C[*:1])cc(C[*:2])c1; pXylylene = c1cc(C[*:2])ccc1C[*:1]; X1 = C(=CC[*:2])C[*:1]

Assay: 48 hours cytotoxicity assay (CellTiter-Glo), liver toxicity
Assay type: cell-based, human
Description: In some embodiments, a peptide provided herein has hepatic toxicity that is at least 10% (e.g., at least 15%, at least 20%, at least 25%, at least 30%, at least 35%, at least 40%, at least 45%, at least 50%, at least 55%, at least 60%, at least 65%, at least 65%, at least 70%, at least 75%, at least 80%, at least 85%, at least 90%, at least 95%, at least 99%) lower than the hepatic toxicity of the reference. The hepatic toxicity of a peptide can be measured in vitro using a human liver cells (e.g., HepG2) toxicity assay.
Cell culture: RPTEC were maintained in MEM media supplemented with growth factors. HEPG2 cell line was maintained in Eagle's Minimum Essential Medium (EMEM) supplemented with fetal bovine serum to a final concentration of 10%.
48 hours cytotoxicity assay: Cells were plated in a 96-well format, and after 4 hour incubation to allow attachment, serial dilutions of StAMPs from a 5 mg/mL water stock, or vehicle, were then added to the cells in a final volume of 100 μl. After incubating at 37° C. for 48 hours, 100 μl of CellTiter-Glo® reagent was added to the cells, and the plates were incubated 10 minutes at room temperature. Luminescence was then measured on a microplate reader.
Renal toxicity was measured after 90 minutes of incubation, while liver toxicity was measured after 48 hours of incubation with StAMPs. N/A=not tested.

Compared with `CC[C@H](C)[C@H](NC(=O)[C@H](CC(C)C)NC(=O)[C@H](CC(C)C)NC(=O)[C@H](CC(N)=O)NC(=O)[C@H](CCCCN)NC(=O)[C@@H](NC(=O)[C@H](CCCCN)NC(=O)[C@H](CCCCN)NC(=O)CNC(=O)[C@H](C)NC(=O)[C@@H]1CSCc2cccc(c2)CSC[C@H](NC(=O)CN)C(=O)N[C@@H](Cc2ccccc2)C(=O)N[C@@H](CO)C(=O)N[C@@H](CCCCN)C(=O)N1)[C@@H](C)CC)C(=O)N[C@@H](CO)C(=O)NCC(=O)N[C@@H](CC(C)C)C(=O)N[C@@H](CCCCN)C(=O)NCC(N)=O` [compound 46] (H-GCFSKCAGKKIKNLLISGLKG-NH2; linker 2-6 via mXylylene; N-terminus assumed), `CC[C@H](C)[C@H](NC(=O)[C@H](CC(C)C)NC(=O)[C@H](CC(C)C)NC(=O)[C@H](CC(N)=O)NC(=O)[C@H](CCCCN)NC(=O)[C@@H](NC(=O)[C@H](CCCCN)NC(=O)[C@H](CCCCN)NC(=O)CNC(=O)[C@H](C)NC(=O)[C@@H]1CSCc2ccc(cc2)CSC[C@H](NC(=O)CN)C(=O)N[C@@H](Cc2ccccc2)C(=O)N[C@@H](CO)C(=O)N[C@@H](CCCCN)C(=O)N1)[C@@H](C)CC)C(=O)N[C@@H](CO)C(=O)NCC(=O)N[C@@H](CC(C)C)C(=O)N[C@@H](CCCCN)C(=O)NCC(N)=O` [compound 47] (H-GCFSKCAGKKIKNLLISGLKG-NH2; linker 2-6 via pXylylene; N-terminus assumed) is 2-fold higher in IC50: 201 µg/mL (≈ 88.7 µM) for the first, 402 µg/mL (≈ 177 µM) for the second.

Going from `CC[C@H](C)[C@H](NC(=O)[C@H](CC(C)C)NC(=O)[C@H](CC(C)C)NC(=O)[C@H](CC(N)=O)NC(=O)[C@H](CCCCN)NC(=O)[C@@H](NC(=O)[C@H](CCCCN)NC(=O)[C@H](CCCCN)NC(=O)CNC(=O)[C@H](C)NC(=O)[C@@H]1CSCC=CCSC[C@H](NC(=O)CN)C(=O)N[C@@H](Cc2ccccc2)C(=O)N[C@@H](CO)C(=O)N[C@@H](CCCCN)C(=O)N1)[C@@H](C)CC)C(=O)N[C@@H](CO)C(=O)NCC(=O)N[C@@H](CC(C)C)C(=O)N[C@@H](CCCCN)C(=O)NCC(N)=O` [compound 48] (H-GCFSKCAGKKIKNLLISGLKG-NH2; linker 2-6 via X1; N-terminus assumed) to `CC[C@H](C)[C@H](NC(=O)[C@H](CC(C)C)NC(=O)[C@H](CC(C)C)NC(=O)[C@H](CC(N)=O)NC(=O)[C@H](CCCCN)NC(=O)[C@@H](NC(=O)[C@H](CCCCN)NC(=O)[C@H](CCCCN)NC(=O)[C@@H]1CSCc2ccc(cc2)-c2ccc(cc2)CSC[C@H](N)C(=O)N[C@@H]([C@@H](C)CC)C(=O)N[C@@H](Cc2ccccc2)C(=O)N[C@@H](CO)C(=O)N[C@@H](CCCCN)C(=O)N[C@@H](CC(C)C)C(=O)N[C@@H](C)C(=O)N1)[C@@H](C)CC)C(=O)N[C@@H](CO)C(=O)NCC(=O)N[C@@H](CC(C)C)C(=O)N[C@@H](CCCCN)C(=O)NCC(N)=O` [compound 51] (H-CIFSKLACKKIKNLLISGLKG-NH2; linker 1-8 via Biphenyl(4,4'-CH2)2; N-terminus assumed), the IC50 falls from over 800 µg/mL to 102 µg/mL (≈ 41.5 µM).

For `CC[C@H](C)[C@H](NC(=O)CN)C(=O)N[C@@H](Cc1ccccc1)C(=O)N[C@H]1CSCc2ccc(cc2)-c2ccc(cc2)CSC[C@@H](C(=O)N[C@@H](CCCCN)C(=O)N[C@@H](CC(N)=O)C(=O)N[C@@H](CC(C)C)C(=O)N[C@@H](CC(C)C)C(=O)N[C@H](C(=O)N[C@@H](CO)C(=O)NCC(=O)N[C@@H](CC(C)C)C(=O)N[C@@H](CCCCN)C(=O)NCC(N)=O)[C@@H](C)CC)NC(=O)[C@H](CCCCN)NC(=O)[C@H](CCCCN)NC(=O)CNC(=O)[C@H](C)NC(=O)[C@H](CC(C)C)NC(=O)[C@H](CCCCN)NC1=O` [compound 59] (H-GIFCKLAGKKCKNLLISGLKG-NH2; linker 4-11 via Biphenyl(4,4'-CH2)2; N-terminus assumed), the IC50 was 23 µg/mL (≈ 9.71 µM).
